Structures can show the parent of a compound that is named as a salt. Where two headings read alike, the source gives them in different places.
How the values were obtained:
[1] = tested on: individuals with a diagnosis of MCI with DepE scores >=2
Method: (§1) Next, the inventors conducted an investigator-initiated clinical trial (NCT02590874). […] Treatment duration was 4 months of duloxetine versus placebo. The initial dosage consisted of 30 mg/day duloxetine or placebo; after two weeks, dosage was increased to 60 mg/day. Dosage during the last two weeks of the 4-month study was reduced to 30 mg/day. Secondary endpoints of change in Repeatable Battery for the Assessment of Neuropsychological Status (RBANS) memory scores from baseline to study completion were analyzed. In this study, the inventors recruited n=16 participants with clinical diagnosis of amnestic MCI (single or multi-domain).

[2] = tested on: individuals with a diagnosis of MCI with elevated DepE scores; conditions: treatment group, follow-up after 4 months
Method: as §1
Fasting blood samples were collected at baseline and follow-up. Several plasma biomarkers were assessed to determine neurodegeneration over treatment duration: Neurofilament light (NfL)(FIG. 6), Tau (FIG. 5), Aβ40 (FIG. 4) and Aβ42 (FIG. 3).

[3] = tested on: individuals with a diagnosis of MCI with DepE scores >=2; conditions: 4 months duloxetine 30-60 mg/day, n=16 participants in the trial
Method: Treatment duration was 4 months of duloxetine versus placebo. The initial dosage consisted of 30 mg/day duloxetine or placebo; after two weeks, dosage was increased to 60 mg/day. Dosage during the last two weeks of the 4-month study was reduced to 30 mg/day. […] In this study, the inventors recruited n=16 participants with clinical diagnosis of amnestic MCI (single or multi-domain). N=14 subjects enrolled were of Mexican American ethnicity.

[4] = Baseline, amnestic MCI participants, duloxetine group before treatment
[5] = Follow-up, 4 months treatment, 30 mg/day then 60 mg/day, last two weeks 30 mg/day, *p < .05

## CNCC[C@H](Oc1cccc2ccccc12)c1cccs1 [Duloxetine, N-methyl-γ-(1-naphthalenyloxy)-2-thiopropanamine hydrochloride]
[1]; [4]
  RBANS Delayed Memory: 76.63(11.01)
  RBANS Immediate Memory: 74.62(11.17)
  RBANS Total: 72.37(5.12)
[1]; [5]
  RBANS Delayed Memory: 91.50(6.98)*
  RBANS Immediate Memory: 88.75(11.43)*
  RBANS Total: 80.37(5.31)*
[1]; MCI patients elevated in the depressive endophenotype, summary statement of the clinical trial
  effect on memory abilities: significant benefit
[1]; treatment group, 4 months, no significant change in the placebo group (p<0.05), FIG. 2
  change in RBANS Delayed Memory scores over treatment duration: significant improvement
[2]; MCI cases with elevated DepE scores
  markers of neurodegeneration (NfL, Tau, Aβ40, Aβ42) at follow-up: primarily stable
[2]; placebo group showed significant increase, FIG. 3
  plasma Aβ42, baseline versus follow-up: no significant differences
[2]; placebo group showed significant increase, FIG. 4
  plasma Aβ40, baseline versus follow-up: no significant differences
[3]
  Serious Adverse Effects (SAEs): no Serious Adverse Effects (SAEs) were identified

From patent US20220202771A1, “Antidepressants for the Treatment or Prevention of Memory Loss and/or Cognitive Decline or Dysfunction in Aging” (UNIVERSITY OF NORTH TEXAS HEALTH SCIENCE CENTER AT FORT …, priority 2019, published 2022)
